Reference: PubChem BioAssay AID588597 (Sanford-Burnham Center for Chemical Genomics, 2011)
Active and inactive are the calls of the source.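 How the source made its calls: active means mean EC50 at or below 20 µM; inactive means the rest.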

What follows are compounds tested against CHO-CHOP luciferase reporter, luminescence, UPR apoptotic arm (assay: activators of PERK-eIF2a-CHOP apoptotic arm – cell-based, luciferase luminescence, set 2, counter-screen for UPR adaptive arm activator project, SAR follow-up (AID 588597)).

Row | Compound | EC50
1 | Cc1cc(NC(=O)c2cc(-c3ccncc3)nc3ccccc23)ccc1Cl | > 80 µM (inactive)
2 | O=C(Nc1cccc(F)c1Br)c1cc(-c2ccncc2)nc2ccccc12 | > 80 µM (inactive)
3 | COc1cccc(NC(=O)c2cc(-c3ccncc3)nc3ccccc23)c1 | > 80 µM (inactive)
4 | O=C(Nc1cccc(F)c1)c1cc(-c2ccncc2)nc2ccccc12 | > 80 µM (inactive)
5 | O=C(Nc1cccc(Cl)c1)c1cc(-c2ccncc2)nc2ccccc12 | > 80 µM (inactive)
6 | Cc1cc(NC(=O)c2cc(-c3ccccc3)nc3ccccc23)ccc1Br | > 80 µM (inactive)
7 | O=C(Nc1ccc(Cl)cc1)c1cc(-c2ccncc2)nc2ccccc12 | 7.43 µM
8 | O=C(Nc1cccc(F)c1F)c1cc(-c2ccncc2)nc2ccccc12 | > 80 µM (inactive)
9 | O=C(Nc1ccc(Br)c(C(F)(F)F)c1)c1cc(-c2ccncc2)nc2ccccc12 | inactive
10 | Cc1ccc(NC(=O)c2cc(-c3ccncc3)nc3ccccc23)cc1 | 8.56 µM
11 | O=C(Nc1ccccc1Br)c1cc(-c2ccncc2)nc2ccccc12 | > 80 µM (inactive)
12 | O=C(Nc1cccc(Br)c1)c1cc(-c2ccncc2)nc2ccccc12 | > 80 µM (inactive)
13 | Cc1cc(NC(=O)c2cc(-c3ccncc3)nc3ccccc23)ccc1F | > 80 µM (inactive)
14 | O=C(Nc1ccc(C(F)(F)F)cc1)c1cc(-c2ccncc2)nc2ccccc12 | 1.99 µM
15 | O=C(Nc1ccc(F)c(F)c1)c1cc(-c2ccncc2)nc2ccccc12 | > 80 µM (inactive)
16 | Cc1cc(Br)cc(NC(=O)c2cc(-c3ccncc3)nc3ccccc23)c1 | inactive
17 | O=C(Nc1cccc(C(F)(F)F)c1)c1cc(-c2ccncc2)nc2ccccc12 | > 80 µM (inactive)
18 | O=C(Nc1ccc(F)cc1)c1cc(-c2ccncc2)nc2ccccc12 | inactive
19 | O=C(Nc1cc(F)ccc1F)c1cc(-c2ccncc2)nc2ccccc12 | inactive
20 | Cc1cccc(NC(=O)c2cc(-c3ccncc3)nc3ccccc23)c1 | > 80 µM (inactive)
